# Source: patent US20170173052A1, “METHODS OF TREATING OVARIAN CANCER” (Cipla Limited, priority 2015, published 2017)
# Read-outs that look alike come from different tables or passages of the source.
# How the values were obtained:
# OVXF SK-OV-3 = assay: In vitro combination study, 2D monolayer CellTiter-Blue, 5x5 matrix; format: cell-based; details: Homo sapiens, 96 h, single agent, four days, read-out: IC50, tumor cell viability, single agent
# Protocol: (§1) The objective of this study was to assess anti-tumor efficacy of methacycline in combination with paclitaxel in a 5×5 matrix combination format against various ovarian cancer cell lines. The compounds were tested in ovarian cell lines, namely OVXF A2780 and OVXF SK-OV-3, obtained from National Cancer Institute (Bethesda, Md., USA). OVXF SKOV-3 cells were obtained from American Type Culture Collection (Rockville, Md., USA). Authenticity of cell lines was confirmed at the DSMZ by STR analysis. Cell lines were routinely passaged once or twice weekly and maintained in culture for up to 20 passages. Cells were grown at 37° C. in a humidified atmosphere with 5% CO2 in RPMI 1640 medium (25 mM HEPES, with L-glutamine, Biochrom) supplemented with 10% (v/v) fetal calf serum and 0.1 mg/mL gentamicin. The percentage of viable cells was determined in a Neubauer-hemocytometer using trypan blue exclusion.
# The CellTiter-Blue® Cell Viability Assay (#G8081, Promega) was used according to manufacturer's instructions. Briefly, cells were harvested from exponential phase cultures, counted and plated in 96-well flat-bottom microtiter plates at a cell density of 4,000-8,000 cells/well depending on the cell line's growth rate. […] Following an incubation period of up to four hours, fluorescence (FU) was measured by using the Enspire Multimode Plate Reader (excitation λ=531 nm, emission λ=615 nm). […]
# [1] = tested on: eight human tumor cell lines of ovarian cancer; assay: In vitro cytotoxicity 3D clonogenic assay, panel; format: cell-based; details: for IC50: Homo sapiens, continuous exposure 8 to 13 days
# Protocol: (§2) In the present study methacycline and the reference compound paclitaxel were investigated for anticancer activity ex vivo in eight human tumor cell lines of ovarian cancer. Tests were carried out using a 3D clonogenic assay in 96-well format with image based read-out. The aim of the study was to investigate antitumor potency and tumor type selectivity of the compound. Cell lines were routinely passaged one or twice weekly. All cells were grown at 37° C. in a humidified atmosphere with 5% CO2 in RPMI 1640 medium (Biochrom) supplemented with 10% (v/v) fetal calf serum and 0.1 mg/mL gentamicin. The percentage of viable cells was determined in a Neubauer-hemocytometer using trypan blue exclusion.
# The clonogenic assay was carried out in a 96 well plate format using ultra low attachment plates. For each test, cells were prepared as described above and assay plates were prepared as follows: each test well contained a layer of semi-solid medium with tumor cells (50 μL), and a second layer of medium supernatant with or without test compound (100 μL). The cell layer consisted of 2·10^3 to 3·10^3 tumor cells per well, which were seeded in 50 μL/well cell culture medium (IMDM, supplemented with 20% (v/v) fetal calf serum, 0.01% (w/v) gentamicin, and 0.4% (w/v) agar. After 24 hours the test compounds were added after serial dilution in cell culture medium, and left on the cells for the duration of the experiment (continuous exposure, 100 μl drug overlay). Test concentrations ranged from 0.01 μM to 316.2 μM (methacycline), and 0.000095 μM to 3 (paclitaxel). Every plate included six untreated control wells and drug-treated groups in duplicate at 9 concentrations. Cultures were incubated at 37° C. and 7.5% CO2 in a humidified atmosphere for 8 to 13 days and monitored closely for colony growth using an inverted microscope. Within this period, ex vivo tumor growth led to the formation of colonies with a diameter of >50 μm. At the time of maximum colony formation, counts were performed with an automatic image analysis system (Bioreader 5000-Wa Biosys GmbH). […]
# IGR-OV1 [2] = assay: In vitro cytotoxicity 3D clonogenic assay; format: cell-based, human; details: based on relative IC50
# Protocol: as §2
# (§3) The clonogenic assay was carried out in a 96 well plate format using ultra low attachment plates. For each test, cells were prepared as described above and assay plates were prepared as follows: each test well contained a layer of semi-solid medium with tumor cells (50 μL), and a second layer of medium supernatant with or without test compound (100 μL). The cell layer consisted of 2·10^3 to 3·10^3 tumor cells per well, which were seeded in 50 μL/well cell culture medium (IMDM, supplemented with 20% (v/v) fetal calf serum, 0.01% (w/v) gentamicin, and 0.4% (w/v) agar. After 24 hours the test compounds were added after serial dilution in cell culture medium, and left on the cells for the duration of the experiment (continuous exposure, 100 μl drug overlay). Test concentrations ranged from 0.01 μM to 316.2 μM (methacycline), and 0.000095 μM to 3 (paclitaxel). Every plate included six untreated control wells and drug-treated groups in duplicate at 9 concentrations. Cultures were incubated at 37° C. and 7.5% CO2 in a humidified atmosphere for 8 to 13 days and monitored closely for colony growth using an inverted microscope. Within this period, ex vivo tumor growth led to the formation of colonies with a diameter of >50 μm. At the time of maximum colony formation, counts were performed with an automatic image analysis system (Bioreader 5000-Wa Biosys GmbH). 48 hours prior to evaluation, vital colonies were stained with a sterile aqueous solution of 2-(4-iodophenyl)-3-(4-nitrophenyl)-5-phenyltetrazolium chloride (1 mg/ml, 100 μl/well)
# OVCAR-5 [3] = assay: In vitro cytotoxicity 3D clonogenic assay; format: cell-based, human; details: based on relative IC50
# Protocol: as §2, §3
# OVCAR3 = assay: In vitro cytotoxicity 3D clonogenic assay; format: cell-based, human; details: based on relative IC50 (individual IC50 <1/2 mean IC50)
# Protocol: as §2, §3
# [4] = tested on: eight selected human ovarian cancer cell lines; assay: In vitro cytotoxicity 2D assay (CellTiter-Blue cell viability), panel mean; format: cell-based; details: for IC50: 96 h treatment, mean over eight ovarian cancer cell lines, read-out: geometric mean absolute IC50 value
# Text: (§4) In the present study the human ovarian cancer cell lines OVXF 899, OVXF 1023, A2780, SK-OV-3, OVCAR-3, IGR-OV1, OVCAR-5 and NCI/ADR-RES were used. OVXF 899 and OVXF 1023 were established at Oncotest, Germany from the corresponding human patient derived xenograft. A2780, IGR-OV1, NCl/ADR-RES, OVCAR-3 and OVCAR-5 were kindly provided by the NCI (National Cancer Institute, Bethesda, Md., USA). SK-OV-3 was purchased from ATCC (Rockville, Md., USA). Authenticity of cell lines was confirmed at the DSMZ by STR (short tandem repeat) analysis, a PCR based DNA-fingerprinting methodology. Cell lines were routinely passaged once or twice weekly and maintained in culture for up to 20 passages. All cells were grown at 37° C. in a humidified atmosphere with 5% CO2 in RPMI 1640 medium (25 mM HEPES, with L-glutamine, #FG1385, Biochrom, Berlin, Germany) supplemented with 10% (v/v) fetal calf serum (Sigma, Taufkirchen, Germany) and 0.1 mg/mL gentamicin (Life Technologies, Karlsruhe, Germany).
# (§5) The CellTiter-Blue® Cell Viability Assay (#G8081, Promega) was used according to manufacturer's instructions. Briefly, cells were harvested from exponential phase cultures, […] on the cell line's growth rate. After a 24 h recovery period to allow the cells to resume exponential growth, test compounds were added.
# (§6) Following an incubation period of up to four hours, fluorescence (FU) was measured by using the Enspire Multimode Plate Reader (excitation λ=531 nm, emission λ=615 nm). For calculations, the mean values of duplicate/six fold (untreated control) data were used. Sigmoidal concentration-response curves were fitted to the data points (T/C values) obtained for each cell line using 4 parameter non-linear curve fit (Oncotest Warehouse Software).
# The in vitro anti-tumor activity of methacycline in eight selected human ovarian cancer cell lines were evaluated. […] Anti-tumor activity was assessed by using the CellTiter-Blue® Cell Viability Assay. Potency is expressed as absolute IC50 and relative IC50 values, calculated by non-linear regression analysis. […]
# OVXF IGR-OV1 = assay: In vitro combination study, 2D monolayer CellTiter-Blue, 5x5 matrix; format: cell-based, human; details: single agent, four days, read-out: IC50, tumor cell viability, single agent
# Protocol: as §1
# (§7) The CellTiter-Blue® Cell Viability Assay (#G8081, Promega) was used according to manufacturer's instructions. Briefly, cells were harvested from exponential phase cultures, counted and plated in 96-well flat-bottom microtiter plates at a cell density of 4,000-8,000 cells/well depending on the cell line's growth rate. After a 24 h recovery period to allow the cells to resume exponential growth, 10 μL of culture medium (twelve control wells/plate) or of culture medium with test compound were added, and treatment continued for four days. After four days treatment of cells, 20 μl/well CellTiter-Blue® reagent was added. Following an incubation period of up to four hours, fluorescence (FU) was measured by using the Enspire Multimode Plate Reader (excitation λ=531 nm, emission λ=615 nm). […]
# (§8) In the present study, methacycline was tested alone and in combination with paclitaxel in order to investigate the ability to inhibit tumor cell growth of ovarian cancer cell lines in a 5×5 matrix combination format. Efficacy of methacycline combined with paclitaxel was assessed by measuring tumor cell viability using a 2D monolayer assay in cell lines OVXF A2780, OVXF IGR-OV1, OVXF SK-OV-3.
# A2780 [5] = assay: In vitro cytotoxicity 3D clonogenic assay; format: cell-based, human; details: based on relative IC50 (individual IC50 <1/2 mean IC50)
# Protocol: as §2, §3
# OVXF 899L = assay: In vitro cytotoxicity 3D clonogenic assay; format: cell-based, human
# Protocol: as §2, §3
# OVXF 1023L = assay: In vitro cytotoxicity 3D clonogenic assay; format: cell-based, human
# Protocol: as §2, §3
# SK-OV-3 [6] = assay: In vitro cytotoxicity 3D clonogenic assay; format: cell-based, human; details: based on relative IC50 (individual IC50 <1/2 mean IC50)
# Protocol: as §2, §3
# NCI-ADR-RES = assay: In vitro cytotoxicity 3D clonogenic assay; format: cell-based, human
# Protocol: as §2, §3
# [7] = tested on: ovarian cancer cell lines A2780, OVCAR3, OVCAR-5, and SK-OV-3; assay: In vitro cytotoxicity 3D clonogenic assay, responding lines; format: cell-based, human; details: range over A2780, OVCAR3, OVCAR-5, SK-OV-3, read-out: IC50 values, inhibition of colony formation
# Protocol: as §2
# The clonogenic assay was carried out in a 96 well plate format using ultra low attachment plates. For each test, cells were prepared as described above and assay plates were prepared as follows: each test well contained a layer of semi-solid medium with tumor cells (50 μL), and a second layer of medium supernatant with or without test compound (100 μL). […] Cultures were incubated at 37° C. and 7.5% CO2 in a humidified atmosphere for 8 to 13 days and monitored closely for colony growth using an inverted microscope. […]
# A2780 [8] = assay: In vitro cytotoxicity 2D assay (CellTiter-Blue cell viability); format: cell-based, human; details: 96 h treatment, read-out: absolute IC50
# Text: as §4, §5, §6
# (§9) The in vitro anti-tumor activity of methacycline in eight selected human ovarian cancer cell lines were evaluated. The test compounds was applied at 10 concentrations in half-log increments up to 300 μM. As a reference compound paclitaxel was tested in parallel. Cells were treated for 96 h with the test compounds. Anti-tumor activity was assessed by using the CellTiter-Blue® Cell Viability Assay. Potency is expressed as absolute IC50 and relative IC50 values, calculated by non-linear regression analysis. Results are depicted in FIGS. 1-4.
# OVCAR-3 = assay: as above; format: cell-based, human; details: 96 h treatment, read-out: absolute IC50
# Text: as §4, §5, §6, §9
# SK-OV-3 [9] = assay: as above; format: cell-based, human; details: 96 h treatment, read-out: absolute IC50
# Text: as §4, §5, §6, §9
# NCI/ADR-RES = assay: as above; format: cell-based, human; details: 96 h treatment, read-out: absolute IC50
# Text: as §4, §5, §6, §9
# IGR-OV1 [10] = assay: as above; format: cell-based, human; details: 96 h treatment, read-out: absolute IC50
# Text: as §4, §5, §6, §9
# OVCAR-5 [11] = assay: as above; format: cell-based, human; details: 96 h treatment, read-out: absolute IC50
# Text: as §4, §5, §6, §9
# OVXF A2780 = assay: In vitro combination study, 2D monolayer CellTiter-Blue, 5x5 matrix; format: cell-based, human; details: single agent, four days, read-out: IC50, tumor cell viability, single agent
# Protocol: as §1, §7, §8
molecule,measurement,setting,value
CC(=O)O[C@H]1C(=O)[C@@]2(C)[C@H]([C@H](OC(=O)c3ccccc3)[C@]3(O)C[C@H](OC(=O)[C@H](O)[C@@H](NC(=O)c4ccccc4)c4ccccc4)C(C)=C1C3(C)C)[C@]1(OC(C)=O)CO[C@@H]1C[C@@H]2O [paclitaxel],IC50,OVXF SK-OV-3,0.009 µM
same,IC50,"[1]; read-out: mean absolute IC50 value, colony formation",0.077 µM
same,IC50,"[1]; read-out: mean relative IC50 value, colony formation",0.012 µM
same,bottom plateaus of the concentration-effect curves of responding tumor models,[1]; responding tumor models,0% to 60
same,activity against colony formation,IGR-OV1 [2],above average activity
same,activity against colony formation,OVCAR-5 [3],above average activity
same,activity against colony formation,OVCAR3,above average activity
same,IC50,[4]; Homo sapiens,0.045 µM
same,IC50,"OVXF IGR-OV1; Homo sapiens, IGROV-1, 96 h",0.003 µM
methacycline,activity against colony formation,A2780 [5],above average activity
same,activity against colony formation,OVXF 899L,No activity
same,activity against colony formation,OVXF 1023L,No activity
same,activity against colony formation,SK-OV-3 [6],above average activity
same,activity against colony formation,NCI-ADR-RES,No activity
same,activity against colony formation,IGR-OV1 [2],No activity
same,activity against colony formation,OVCAR3,above average activity
same,IC50,[7],54.1 to 71.1 µM
same,IC50,[4],27.2 µM
same,difference between the most sensitive and most resistant cell line,[4]; IGR-OV1 vs NCI/ADR-RES IC50,13 fold
same,IC50,A2780 [8],22.7 µM
same,IC50,OVCAR-3,17.5 µM
same,IC50,SK-OV-3 [9],18.6 µM
same,IC50,NCI/ADR-RES,104 µM
same,IC50,IGR-OV1 [10],7.92 µM
same,IC50,OVCAR-5 [11],14.5 µM
same,IC50,OVXF A2780,34.6 µM
same,IC50,OVXF IGR-OV1,43.3 µM
